{
  "source": "patent US20080275078A1",
  "about": "“Pyrazolo[3,4-B] Pyridine Compounds and Their Use as Pde4 Inhibitors” (Glaxo Group Limited, priority 2004, published 2008)",
  "key": {"[1]": {"tested_on": "atopic dermatitis patients", "conditions": "0.5% ointment, twice daily topical application; cited from earlier work"}, "[2]": {"tested_on": "dinitrofluorobenzene (DNFB)-induced delayed type hypersensitivity (DTH) response in pigs", "assay": "In Vivo Assay A: pig model of atopic dermatitis, skin topical administration", "conditions": "for reduction in the mean summed score: ca. 2.5% (w/v) in DMSO/acetone solution, about 2 h prior to and 6 h after DNFB challenge, vs vehicle alone", "from_the_text": "The pig DTH (delayed type hypersensitivity) model of contact hypersensitivity utilizes the Th2-mediated inflammatory response in pig skin to mimic the pathology of atopic dermatitis in humans. The model measures the potential anti-inflammatory effect of compounds, topically-applied to the skin, on the acute DTH (delayed type hypersensitivity) response in castrated male Yorkshire pigs.\nIn general in the assay, pigs (domestic Yorkshire pigs, 15-18 kg at time of sensitization, castrated males) are first sensitized by topical application of ca. 10% (w/v) dinitrofluorobenzene (DNFB) dissolved in DMSO:acetone:olive oil (ca. 1:5:3) (ca. 40 mg DNFB, 400 microlitre solution total) to the ears (outer) and groin (inner). The pigs are then challenged 12 days later with ca. 0.6% (w/v) DNFB applied to randomized sites on the shaved back of the pigs (ca. 90 micrograms/site; sites are identified and numbered by grid made with marking pen).\nOn the day of challenge, the treatments are performed at the challenge sites at about 2 hours prior to and about 6 hours after challenge (for DMSO/acetone solutions/suspensions containing the PDE4 inhibitor, to maximize exposure to drug), or at about 30 minutes after and about 6 hours after challenge (for topical ointments or creams containing the PDE4 inhibitor, representing a more clinically relevant treatment protocol).\nOne day (about 24 hrs) after challenge, and optionally again at ca. 48 hrs post challenge, test sites are visually evaluated for intensity and extent of erythema by measuring the diameter of the reaction at its widest point and assigning scores of 0 to 4 for each of erythema intensity and erythema extent. Induration (a measure of swelling) is also scored 0 to 4. Scores for erythema intensity, erythema extent and induration are assigned according to the following criteria: Intensity of Erythema: 0=normal, 1=minimal, barely visible, 2=mild, 3=moderate, 4=severe. Extent of Erythema (not raised): 0=no edema, 1=macules of pin head size, 2=lentil sized macules, 3=confluent macules, 4=diffuse over entire site. Induration (palpable): 0=normal, 1=nodules of pin head size, 2=doughy lentil sized nodules, 3=confluent firm nodules, 4=diffuse hard lesion. The summed visual score at ca. 24 hours includes the individual scores for erythema intensity, erythema extent, and induration; so the maximal summed score for each site would be 12. High summed scores can generally indicate a high inflammatory response. Visual scores are subject to some inaccuracy/error.\nDifferences in the summed score between adjacent control (placebo) and treatment sites on the grids are calculated. This difference value is then used to determine the percent inhibition compared to the summed score for the control (placebo) sites. The more negative the difference value, the greater the calculated inhibition. Percent inhibition of (percent inhibition compared to) the mean summed score can be calculated.\nAbout 24 hours after challenge, treatment sites can optionally also be visually evaluated for lesion area.\nThe anti-inflammatory effect of the compound 4-{[1-(aminocarbonyl)-4-piperidinyl]amino}-N-[(3,4-dimethylphenyl)methyl]-1-ethyl-1H-pyrazolo[3,4-b]pyridine-5-carboxamide (“Example 2 or 2A compound”), applied topically to the skin, on the acute DTH response in castrated male Yorkshire pigs is compared to that of another PDE4 inhibitor cipamfylline (BRL-61063) and the topical immunomodulator pimecrolimus.\nIn the above assay, the Example 2 or 2A compound is topically administered: either (A) at ca. 2.5% (w/v) concentration in a solution of ca. 10% DMSO/90% acetone (ca. 50 microlitres or ca. 1.5 mg/site) at about 2 hours prior to and about 6 hours after the DNFB challenge; or (B) at ca. 0.5% (w/w) concentration in an ointment containing propylene glycol (PG)* (ca. 25 mg of formulation/site) at about 30 minutes after and about 6 hours after the DNFB challenge. […]"}, "[3]": {"assay": "Preliminary test of systemic exposure after oral administration to rat(s)", "assay_type": "in vivo", "conditions": "about 1 mg/kg, free base, in approx. 10% DMSO and 90% PEG200/water (70:30), preliminary tests", "from_the_text": "Although the compound of formula (I) or salt thereof may be administered orally, oral administration is not presently thought to be a preferred route of administration, at least for the compound 4-{[1-(aminocarbonyl)-4-piperidinyl]amino}-N-[(3,4-dimethylphenyl)methyl]-1-ethyl-1H-pyrazolo[3,4-b]pyridine-5-carboxamide (“free base” form) (e.g. Example 2, 2A or 2B)."}, "[4]": {"assay": "Preliminary aqueous solubility screen", "assay_type": "physicochemical", "conditions": "pH 7.4 PBS with about 5% DMSO, about room temperature, free base", "description": "Aqueous solubility: A preliminary screen aims to estimate roughly the aqueous solubility of compounds by (as an approximate summary): (i) creating a ca. 10 mM solution of the compound in DMSO, (ii) diluting a portion of this DMSO solution by mixing about 19 parts by volume of pH 7.4 aqueous phosphate buffered saline (PBS) buffer with 1 part by volume of the ca. 10 mM DMSO solution, (iii) “filtering” the mixture with the aid of centrifugation, and then (iv) measuring the concentration of the dissolved compound in the “filtrate”."}, "Measured logD": {"assay": "Measured logD", "assay_type": "physicochemical", "conditions": "octanol/water; pH=7.4, free base"}, "COPD patients": {"tested_on": "COPD patients", "conditions": "cited from earlier work"}, "[5]": {"tested_on": "atopic dermatitis patients", "conditions": "0.15% cream vs vehicle and hydrocortisone 17-butyrate (0.1%) cream; cited from earlier work"}},
  "data": [
    {"compound": "COc1ccc(C2CNC(=O)NC2)cc1O[C@H]1C[C@@H]2CC[C@H]1C2", "note": "[CP80,633]", "values": [
      {"measurement": "inflammatory parameters in atopic dermatitis patients", "setting": "[1]", "value": "reductions of inflammatory parameters"}
    ]},
    {"compound": "CCn1ncc2c(NC3CCN(C(N)=O)CC3)c(C(=O)NCc3ccc(C)c(C)c3)cnc21", "note": "[Example 2, 4-{[1-(aminocarbonyl)-4-piperidinyl]amino}-N-[(3,4-dimethylphenyl)methyl]-1-ethyl-1H-pyrazolo[3,4-b]pyridine-5-carboxamide]", "values": [
      {"measurement": "inhibition of the mean summed score (erythema intensity, erythema extent, induration)", "setting": "[2]; ca. 0.5% (w/w) in PG ointment, about 30 min and 6 h after DNFB challenge, vs placebo PG ointment, ca. 24 h, p<0.05", "value": "13-14%"},
      {"measurement": "reduction in the mean summed score", "setting": "[2]", "value": "about 21%"},
      {"measurement": "lesion area", "setting": "[2]; skin administration in DMSO/acetone or PG ointment, results subject to some inaccuracy/error", "value": "decrease the lesion area"},
      {"measurement": "systemic exposure after oral administration", "setting": "[3]", "value": "low systemic exposure"},
      {"measurement": "aqueous solubility", "setting": "[4]", "value": "about 60 micrograms of the compound/ml"},
      {"measurement": "logD", "setting": "Measured logD", "value": "~3.4"},
      {"measurement": "melting point", "value": "152 to 154", "unit": "°C"}
    ]},
    {"compound": "COc1ccc([C@]2(C#N)CC[C@@H](C(=O)O)CC2)cc1OC1CCCC1", "note": "[cilomilast]", "values": [
      {"measurement": "forced expiratory volume (FEV1) in COPD patients", "setting": "COPD patients; 15 mg orally twice daily", "value": "appears to improve forced expiratory volume"},
      {"measurement": "antiinflammatory effects in COPD patients", "setting": "COPD patients; human, in vivo", "value": "appears to have antiinflammatory effects"}
    ]},
    {"compound": "Nc1nc2c([nH]1)c(=O)n(CC1CC1)c(=O)n2CC1CC1", "note": "[cipamfylline, reference compound]", "values": [
      {"measurement": "reduction in the summed scores", "setting": "[2]; ca. 0.25% (w/w) in ointment, not statistically significant", "value": "6-7%"},
      {"measurement": "reduction in the mean summed score", "setting": "[2]", "value": "about 8%"},
      {"measurement": "effectiveness in the treatment of atopic dermatitis patients", "setting": "[5]", "value": "significantly more effective than vehicle, but significantly less effective than hydrocortisone 17-butyrate (0.1%) cream"}
    ]},
    {"compound": "O=C(Nc1c(Cl)cncc1Cl)c1ccc(OC(F)F)c(OCC2CC2)c1", "note": "[roflumilast]", "values": [
      {"measurement": "FEV1 in COPD patients", "setting": "COPD patients; roflumilast, Lipworth 2005", "value": "small improvements in FEV1"}
    ]}
  ]
}
